US20230256039A1, “COMPOSITIONS AND METHODS TO INCREASE PRODUCTION OF HYDROXYTYROSOL” (priority 2022, published 2023)

What was measured:
[1] = tested on: Lactobacillus pentosus strain OL79; conditions: MIC cutoff values for Lactobacillus pentosus strain OL79; cited from earlier work
[2] = tested on: Lactobacillus pentosus strain OL79; assay: Minimum inhibitory concentration (MIC) antibiotic susceptibility of strain OL79; type: cell-based; conditions: MIC of antibiotic against strain OL79 versus EFSA cutoff

Compound	EFSA Break Point [1]	Susceptibility [2]
CC1(C)S[C@@H]2[C@H](NC(=O)[C@H](N)c3ccccc3)C(=O)N2[C@H]1C(=O)O [Ampicillin]	2 mg/L	sensitive
Gentamycin	16 mg/L	sensitive
O=C(N[C@H](CO)[C@H](O)c1ccc([N+](=O)[O-])cc1)C(Cl)Cl [Chloramphenicol]	8 mg/L	sensitive
CC[C@H]1OC(=O)[C@H](C)[C@@H](O[C@H]2C[C@@](C)(OC)[C@@H](O)[C@H](C)O2)[C@H](C)[C@@H](O[C@@H]2O[C@H](C)C[C@H](N(C)C)[C@H]2O)[C@](C)(O)C[C@@H](C)C(=O)[C@H](C)[C@@H](O)[C@]1(C)O [Erythromycin]	1 mg/L	sensitive
